Test results as given in patent US11690389B2, “Red beet pigment composition” (priority 2017, dated 2023).
Read-outs that look alike come from different tables or passages of the source.

Assays:
[1] = test system: red beet plants (Monty Rz and Belushi Rz); experiment: Field trials harvested at a single time-point: foliar spraying of red beet plants with egc, betalain pigments and yield data of roots; type: in vivo, red beet (Beta vulgaris L. spp. vulgaris); details: for Betalains (g kg^−1 DM) / Betalains (mg kg^−1 FW) Bn / Betalains (mg kg^−1 FW) Vx / Betalains:TSS / Bn:Vx: egc 360 g ha^−1 foliar, roots 16 weeks after sowing
Method: (§1) Field trials were conducted at the Hoejbakkegaard (latitude 55, […]; Denmark) in 2015, where three-row plots were arranged in randomized block designs with three replicates. Rainfall was complemented by irrigation throughout red beet growth to avoid water stress. Foliar applications of an ethylene generating compound (egc), 2-chloroethylphosphonic acid (CERONE® brand ETHEPHON, 39.9% active ingredient, Bayer Crop Science, Leverkusen, Germany), at a concentration of 360 g ha^−1 were performed with a CO2 backpack spaced 50 cm apart, using manual spraying equipment designed for agricultural use. Egc application began 5 weeks after sowing and continued every 3 weeks, with a total of five applications. Plants were cultivated in loamy soil using techniques recommended for cultivation and plant protection in red beet crop production.
Trial 1. Plants were grown in plots consisted of 4.5 m-long rows, with a single harvest from the middle part of each row performed 16 weeks after sowing.
(§2) Biological replicates consisting of twenty beetroots were washed and split lengthwise. Of these, one pool of halves was ground and homogenized in a 3% sulfuric acid solution (1/1, w/w), using a Waring® two-speed commercial blender (VWR—Bie & Berntsen, Herlev, Denmark). The resulting fine homogenate was subsequently mixed with demineralized water (1/2, w/w) and vortexed. Finally, the sample was centrifuged for 20 min at 4500 rpm, and the supernatant (extract) was utilized for further analyses.
(§3) Bn and Vx were measured spectrophotometrically. The beetroot extract was diluted to a proper concentration in 33 mM KH2PO4 (pH 6.5), and the absorption was measured at 476 nm and 538 nm for Bn and Vx, respectively, using a UV-visible spectrophotometer (Thermo Scientific Evolution™ 220, Waltham, Mass., USA). Bn and Vx concentrations were expressed in mg kg^−1 fresh weight (FW), using the corresponding absorbance, molecular weight and extinction coefficient for Bn and Vx.
TSS was measured with a manual refractometer (Refracto 30PX/GS Mettler-Toledo Inc., OH, USA) operating in the 0% to 85% Brix range. The beetroot extract was filtered through 0.45 μm membrane filters, and Brix measurements were performed using 1 mL of the filtrate.
DM was determined after samples were dried to a constant weight at 100° C. for 24 h, based on the difference in mass between the fresh and dry samples. […] was then expressed as a percentage of the dry matter.

[2] = test system: red beet plants (Monty Rz and Belushi Rz); experiment: Field trial with several harvests: betalain accumulation during root growth after foliar spraying with egc; type: in vivo, red beet (Beta vulgaris L. spp. vulgaris); details: for Bn content at peak: 9 weeks after sowing as printed; for Betalains (mg kg^−1 FW) Bn / Betalains (mg kg^−1 FW) Vx / Bn:Vx: egc 360 g ha^−1
Method: as §1
Trial 2. Plots consisted of 12 m-long rows, with several harvests from separate row segments performed during growth (3, 6, 9, 12, 15 and 18 weeks after sowing). For further analyses, biological replicates consisted of 20 whole beetroots harvested per plot.
as §2
as §3, with “Vx. […]” for “Vx.”

A. Mangostanus seedlings = details: cited from earlier work
beet root = details: 50 ppm; cited from earlier work
[3] = Belushi Rz, 3 weeks after sowing
[4] = Belushi Rz, 6 weeks after sowing
[5] = Belushi Rz, 9 weeks after sowing
[6] = Belushi Rz, 12 weeks after sowing
[7] = Belushi Rz, 15 weeks after sowing
[8] = Belushi Rz, 18 weeks after sowing
[9] = Monty Rz, 12 weeks after sowing
[10] = Monty Rz, 15 weeks after sowing
[11] = Monty Rz, 18 weeks after sowing

## O=P(O)(O)CCCl [egc, 2-chloroethylphosphonic acid]
[1]; 16-week-old plants
  Vx content of roots, untreated versus treated plants: did not vary significantly
[1]; Belushi Rz
  increase of Bn:Vx compared with untreated plants: 36%
  increase of betalains:TSS in average: 30%
  increase of root Bn content compared with untreated plants, in average: 20%
[1]; Belushi Rz, egc treated beetroots
  mean Bn:Vx: 6.1
[1]; Field trial 1, Belushi Rz
  Betalains (g kg^−1 DM): 17.4 g kg^−1 DM
  Betalains (mg kg^−1 FW) Bn: 1575 mg kg^−1 FW
  Betalains (mg kg^−1 FW) Vx: 274 mg kg^−1 FW
  Betalains:TSS: 0.126
  Bn:Vx: 5.82
[1]; Field trial 1, Monty Rz
  Betalains (g kg^−1 DM): 21.9 g kg^−1 DM
  Betalains (mg kg^−1 FW) Bn: 2166 mg kg^−1 FW
  Betalains (mg kg^−1 FW) Vx: 386 mg kg^−1 FW
  Betalains:TSS: 0.154
  Bn:Vx: 5.79
[1]; Field trial 2, Belushi Rz
  Betalains (g kg^−1 DM): 15.0 g kg^−1 DM
  Betalains (mg kg^−1 FW) Bn: 1584 mg kg^−1 FW
  Betalains (mg kg^−1 FW) Vx: 247 mg kg^−1 FW
  Betalains:TSS: 0.088
  Bn:Vx: 6.42
[1]; Field trial 2, Monty Rz
  Betalains (g kg^−1 DM): 21.5 g kg^−1 DM
  Betalains (mg kg^−1 FW) Bn: 2458 mg kg^−1 FW
  Betalains (mg kg^−1 FW) Vx: 364 mg kg^−1 FW
  Betalains:TSS: 0.132
  Bn:Vx: 6.88
[1]; Monty Rz
  increase of Bn:Vx compared with untreated plants: 34%
  increase of betalains:TSS in average: 37%
  increase of root Bn content compared with untreated plants: 25%
[1]; Monty Rz, egc treated beetroots
  mean Bn:Vx: 6.3
[1]; both cultivars
  Bn:Vn upon ethephon treatment: increased substantially
  effect on beetroot yield in tons per hectare: no significant effects
  effect on root FW: no significant effects
[1]; both cultivars, 16-week-old plants
  Bn content of roots versus untreated plants: increased
[1]; egc treated beetroots
  DM (dry matter) of beetroots versus untreated roots: lower
  betalain content versus untreated roots: higher
  mean TSS versus untreated roots: lower
[2]; Belushi Rz
  Bn:Vx higher in egc treated plants, average over all harvests: 35%
  higher Bn content than untreated, average of all harvests: 10%
  mean root Vx, less in average: 20%
  Bn content at peak: 2577 mg kg^−1 FW
[2]; [3]
  Betalains (mg kg^−1 FW) Bn: 945 mg kg^−1 FW
  Betalains (mg kg^−1 FW) Vx: 24.3 mg kg^−1 FW
  Bn:Vx: 39.0
[2]; [4]
  Betalains (mg kg^−1 FW) Bn: 2577 mg kg^−1 FW
  Betalains (mg kg^−1 FW) Vx: 58.4 mg kg^−1 FW
  Bn:Vx: 45.7
[2]; [5]
  Betalains (mg kg^−1 FW) Bn: 2144 mg kg^−1 FW
  Betalains (mg kg^−1 FW) Vx: 128 mg kg^−1 FW
  Bn:Vx: 17.2
[2]; [6]
  Betalains (mg kg^−1 FW) Bn: 1683 mg kg^−1 FW
  Betalains (mg kg^−1 FW) Vx: 157 mg kg^−1 FW
  Bn:Vx: 11.1
[2]; [7]
  Betalains (mg kg^−1 FW) Bn: 1442 mg kg^−1 FW
  Betalains (mg kg^−1 FW) Vx: 211 mg kg^−1 FW
  Bn:Vx: 6.84
[2]; [8]
  Betalains (mg kg^−1 FW) Bn: 1369 mg kg^−1 FW
  Betalains (mg kg^−1 FW) Vx: 286 mg kg^−1 FW
  Bn:Vx: 4.85
[2]; Monty Rz
  Bn:Vx higher in egc treated plants, average over all harvests: 17%
  higher Bn content than untreated, average of all harvests: 17%
  mean root Vx, less in average: 5%
  Bn content at peak: 2867 mg kg^−1 FW
[2]; Monty Rz, 3 weeks after sowing
  Betalains (mg kg^−1 FW) Bn: 1343 mg kg^−1 FW
  Betalains (mg kg^−1 FW) Vx: 32.3 mg kg^−1 FW
  Bn:Vx: 41.6
[2]; Monty Rz, 6 weeks after sowing
  Betalains (mg kg^−1 FW) Bn: 2867 mg kg^−1 FW
  Betalains (mg kg^−1 FW) Vx: 62.3 mg kg^−1 FW
  Bn:Vx: 46.5
[2]; Monty Rz, 9 weeks after sowing
  Betalains (mg kg^−1 FW) Bn: 2685 mg kg^−1 FW
  Betalains (mg kg^−1 FW) Vx: 180 mg kg^−1 FW
  Bn:Vx: 14.9
[2]; [9]
  Betalains (mg kg^−1 FW) Bn: 2475 mg kg^−1 FW
  Betalains (mg kg^−1 FW) Vx: 239 mg kg^−1 FW
  Bn:Vx: 10.5
[2]; [10]
  Betalains (mg kg^−1 FW) Bn: 2274 mg kg^−1 FW
  Betalains (mg kg^−1 FW) Vx: 304 mg kg^−1 FW
  Bn:Vx: 7.56
[2]; [11]
  Betalains (mg kg^−1 FW) Bn: 2219 mg kg^−1 FW
  Betalains (mg kg^−1 FW) Vx: 455 mg kg^−1 FW
  Bn:Vx: 4.89
[2]; both cultivars, 6 weeks after sowing
  highest Bn:Vx: 46
[2]; both cultivars, at each harvest point, 360 g egc ha−1
  root mass and diameter, untreated versus treated red beets: no significant differences
A. Mangostanus seedlings; 0.1 mM
  pigment accumulation in seedlings: did not elicit pigment accumulation
A. Mangostanus seedlings; 1 mM
  pigment accumulation in seedlings: did not elicit pigment accumulation
A. Mangostanus seedlings; 5 mM
  pigment accumulation in seedlings: seemed to have an effect
Beet root
  beta cyanin efflux: promoted
